We go through two molecules from paper PMC12486385 (Virus Evolution, 2025).

Series [1] in a line: Peptide precipitation / solubility under assay conditions. The class given is physicochemical.
Series [2] concerns NTRs (IMP⍺1/2/3/5/7 and IMPβ1/2/3). As to the kind of experiment: Fluorescence polarization. It is filed as binding, human; mouse (IMP⍺2). The following applies: FP; poor peptide solubility.
Series [3] addresses human importin beta 1 (hIMPβ1) (human, UniProt Q14974 1-876). Kind of series: fluorescence polarisation.

No end group written: not given here.

Sequence of human importin beta 1 (hIMPβ1) (Q14974 whole entry): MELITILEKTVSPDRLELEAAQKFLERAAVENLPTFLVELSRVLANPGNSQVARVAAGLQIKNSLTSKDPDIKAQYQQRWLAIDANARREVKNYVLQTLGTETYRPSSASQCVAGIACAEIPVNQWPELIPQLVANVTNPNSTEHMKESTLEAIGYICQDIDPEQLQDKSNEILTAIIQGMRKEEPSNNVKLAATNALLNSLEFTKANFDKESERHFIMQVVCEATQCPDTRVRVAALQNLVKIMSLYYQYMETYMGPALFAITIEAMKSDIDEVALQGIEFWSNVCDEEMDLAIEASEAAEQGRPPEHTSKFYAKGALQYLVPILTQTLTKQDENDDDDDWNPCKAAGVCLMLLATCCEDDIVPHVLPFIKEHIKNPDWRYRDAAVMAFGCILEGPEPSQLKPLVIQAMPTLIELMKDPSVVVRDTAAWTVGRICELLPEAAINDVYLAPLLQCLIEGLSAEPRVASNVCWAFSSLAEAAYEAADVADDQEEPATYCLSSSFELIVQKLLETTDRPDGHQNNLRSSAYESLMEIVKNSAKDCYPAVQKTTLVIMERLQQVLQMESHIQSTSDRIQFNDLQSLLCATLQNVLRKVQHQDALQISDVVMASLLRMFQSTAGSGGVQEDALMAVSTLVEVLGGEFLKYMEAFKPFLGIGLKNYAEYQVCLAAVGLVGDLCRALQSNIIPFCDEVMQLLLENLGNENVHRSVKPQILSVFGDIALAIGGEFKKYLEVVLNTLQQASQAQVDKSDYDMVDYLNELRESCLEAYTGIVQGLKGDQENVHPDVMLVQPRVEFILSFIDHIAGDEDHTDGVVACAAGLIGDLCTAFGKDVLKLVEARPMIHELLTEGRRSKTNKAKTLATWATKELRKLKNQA

Regarding “27-RRWRRRPRRRRRPYRRRPYRRYGRRRKVRRR-57 [ORF1 NLSn]”, the precipitation entry in series [1] (EMSA conditions, 10 μM FITC-peptide, TB buffer) is “consistently precipitated, suggesting poor solubility under assay conditions”. Moreover, the “solubility (in words)” value in series [1] (FP conditions, 10 nM FITC-peptide, SEC buffer pH 8) is reported as “poor peptide solubility”. In series [2], the “interaction with NTRs (in words)” value was “no interaction could be detected”.

B1: ORF1 NLSn_B peptide (TTDoV ORF1 residues 48-57, predicted monopartite cNLS) (peptide)
peptide: YGRRRKVRRR
modifications: also: FITC-tagged, end not given here
On to B1, for which the binding result in series [3] is “binds”.
